Data published in patent publication US7018457B2, “Azo metal-complexed dyes, ink jet ink compositions and ink jet printing methods” (Polaroid Corporation, priority 2002, dated 2006).

Tests used:
Type in all cases: physicochemical
[1] = Light stability of dye coatings on receiver papers, Xenon arc at 10,000 ft. candles; details: for % Density Loss (Y) after 5 Day Xe Arc, Epson / % Density Loss (Y) after 5 Day Xe Arc, Kodak / % Density Loss (Y) after 5 Day Xe Arc, Watercolor: 5 days
Experimental: (§1) Experiments were carried out with Kodak® Premium Glossy Paper (available from Eastman Kodak Company, Rochester, N.Y.), Epson Premium Glossy Photo Paper (available from Epson Corporation) and Somerset Radiant White watercolor paper (a 100% cotton fiber paper with little or no sizing).
(§2) The dye samples were prepared by initially making a concentrated ink jet fluid (Fluid A) with 35.2% 1,5-pentanediol, 24.8% 2-pyrollidinone, 20% trimethylolpropane and 20% water (by weight). Two parts by weight of Fluid A were diluted with eight parts of water to form Fluid B consisting of approximately 7% 1,5-pentanediol, 5% 2-pyrollidinone, 4% trimethylolpropane and 84% water.
(§3) The test fluids were prepared by dissolving approximately 20 mg of dye with heating and vortex stirring into 1 gram of Fluid B. Once a clear fluid was obtained, the fluid was coated on the ink jet receiver material with a #4 Meyer rod. The coating was dried and the reflection density was measured. When the density was not in the range of from 0.7 to 1.3 the test fluid was diluted with additional Fluid B and the coatings repeated until the reflection density was in the range specified above.
(§4) Samples of the dyes were applied to the papers in a thin film as described above, air dried and the sample exposed in a Xenon arc at 10,000 ft. candles and also to cool white fluorescent bulbs with an irradiance of 2,500 ft. candles.
This example illustrates the light stability of the dyes of formulas V–XV in xenon arc testing. The tests were carried out as described in Example II.
The ozone tests were conducted in an ozone chamber constructed from a large Pyrex jar having a volume of approximately 1.2 ft.^3 and a low temperature mercury-argon lamp (Oriel 6035). Ozone was produced in situ by the direct photolysis of oxygen in the ambient air within the chamber. A fan in the chamber ensured that all the samples were uniformly exposed to the ozone. The lamp power supply was energized under the control of a timer such that the lamp was on for 15 minutes every two hours thereby producing an average ozone concentration of about 10 PPM (24 mg/m^3). The test was carried out for 16 hours, or 8 lamp cycles. The ozone tests were carried out on Epson paper. The light stability experiments were carried out for 5 days at […] on Kodak Glossy Paper.

[2] = Ozone stability of dye coatings in an ozone chamber; details: Epson paper; about 10 PPM ozone; 16 hours, 8 lamp cycles
[3] = Light stability of dye coatings on receiver papers, cool white fluorescent bulbs at 2,500 ft. candles; details: cool white fluorescent 2,500 ft. candles
Experimental: as §1, §2, §3, §4

SMILES: Cc1nn(-c2ccc(S(=O)(=O)[O-])cc2)c(O)c1N=Nc1ccc(S(=O)(=O)[O-])cc1C(=O)[O-].[Na+].[Na+].[Na+] [Control, 2-[5-hydroxy-3-methyl-1-(4-sulfophenyl)-1H-pyrazol-4-ylazo]-5-sulfobenzoic acid sodium salt]
- % Density Loss (Y) after 5 Day Xe Arc, Epson ([1]; Epson Premium Glossy Photo Paper, Xenon arc 10,000 ft. candles): −7%
- % Loss in Density, Light ([1]; Kodak Glossy Paper, 5 days at 10,00 ft. candles): −90%
- % Density Loss (Y) after 5 Day Xe Arc, Kodak ([1]; Kodak Premium Glossy Paper, Xenon arc 10,000 ft. candles): −85%
- % Density Loss (Y) after 5 Day Xe Arc, Watercolor ([1]; Somerset Radiant White watercolor paper, Xenon arc 10,000 ft. candles): −23%
- % Loss in Density, Ozone [2]: −29%
- % Density Loss after 3 weeks under fluorescent light, Epson ([3]; Epson paper): 1%
- % Density Loss after 3 weeks under fluorescent light, Kodak ([3]; Kodak paper): −51%
- % Density Loss after 3 weeks under fluorescent light, Watercolor ([3]; watercolor paper): −7%

SMILES: Cc1nn(-c2ccc(S(=O)(=O)[O-])cc2)c2c1N=Nc1ccc(S(=O)(=O)[O-])cc1C(=O)[O][Co][O]2.O.[Na+].[Na+] [VI]
- % Density Loss (Y) after 5 Day Xe Arc, Epson ([1]; Table IV, Epson paper, Xenon arc as in Example II): 17%
- % Density Loss (Y) after 5 Day Xe Arc, Kodak ([1]; Table IV, Kodak paper, Xenon arc as in Example II): −52%
- % Density Loss (Y) after 5 Day Xe Arc, Watercolor ([1]; Table IV, watercolor paper, Xenon arc as in Example II): −19%
